{"source": "patent US20060258599A1", "about": "“Methods and composition for the treatment of cystic fibrosis and related illnesses” (priority 2005, published 2006)", "key": {"[1]": {"test_system": "individual who is a carrier of the CF gene", "experiment": "Fatty acid profile blood tests before and after 10-day oral isothiocyanate (individual study)", "format": "in vivo, human", "protocol": "Example 1. Individual study based on 10 mg consumption of BITC. An isothiocyanate of 10 mg was taken orally per day for 10 days by an individual who is a carrier of the CF gene. Blood tests were performed before and after the 10-day study to determine the fatty acid levels before and after administration of the isothiocyanate."}, "[2]": {"test_system": "glutathione S-transferase", "conditions": "cited from earlier work; for glutathione S-transferase activity: HT29 cells"}, "[3]": {"conditions": "+10 days vs baseline, 10 mg orally per day"}}, "note": "Read-outs that look alike come from different tables or passages of the source.", "data": [{"smiles": "S=C=NCc1ccccc1", "note": "[BITC, benzyl isothiocyanate]", "values": [{"measurement": "Arachidic Acid, % Change", "setting": "[1]; [3]", "value": "−8.93", "unit": "%"}, {"measurement": "Arachidonic Acid, % Change", "setting": "[1]; [3]", "value": "−3.31", "unit": "%"}, {"measurement": "DHA C22:6W3, % Change", "setting": "[1]; [3]", "value": 36.29, "unit": "%"}, {"measurement": "DPA C22 6W3, % Change", "setting": "[1]; [3]", "value": "−5.19", "unit": "%"}, {"measurement": "DPA C22:6W6, % Change", "setting": "[1]; [3]", "value": "−8.7", "unit": "%"}, {"measurement": "DTA C22 4W6T, % Change", "setting": "[1]; [3]", "value": 6.45, "unit": "%"}, {"measurement": "Docosanoic Acid C22:0, % Change", "setting": "[1]; [3]", "value": 22.59, "unit": "%"}, {"measurement": "Docosanoic Acid C22:1, % Change", "setting": "[1]; [3]", "value": 0, "unit": "%"}, {"measurement": "EPA, % Change", "setting": "[1]; [3]", "value": 18.57, "unit": "%"}, {"measurement": "Hexacosanoic Acid C24:0, % Change", "setting": "[1]; [3]", "value": 33.33, "unit": "%"}, {"measurement": "Hexacosanoic Acid C28:1, % Change", "setting": "[1]; [3]", "value": 29.17, "unit": "%"}, {"measurement": "Mead Acid, % Change", "setting": "[1]; [3]", "value": 0, "unit": "%"}, {"measurement": "Nervonic Acid, % Change", "setting": "[1]; [3]", "value": "−2.47", "unit": "%"}, {"measurement": "Phytanic Acid, % Change", "setting": "[1]; [3]", "value": 18.8, "unit": "%"}, {"measurement": "Priatanic Acid, % Change", "setting": "[1]; [3]", "value": 11.11, "unit": "%"}, {"measurement": "Tetracosanoic Acid, % Change", "setting": "[1]; [3]", "value": 24.6, "unit": "%"}, {"measurement": "Tiete Tebrana Ratio, % Change", "setting": "[1]; [3]", "value": 0, "unit": "%"}, {"measurement": "Total Fatty Acids, % Change", "setting": "[1]; [3]", "value": 1.87, "unit": "%"}, {"measurement": "Total Monounsaturated, % Change", "setting": "[1]; [3]", "value": 12, "unit": "%"}, {"measurement": "Total Polyunsaturated, % Change", "setting": "[1]; [3]", "value": 4.35, "unit": "%"}, {"measurement": "Total Saturated, % Change", "setting": "[1]; [3]", "value": 0, "unit": "%"}, {"measurement": "Total w3, % Change", "setting": "[1]; [3]", "value": 20, "unit": "%"}, {"measurement": "Total w61, % Change", "setting": "[1]; [3]", "value": 2.44, "unit": "%"}, {"measurement": "h-g-Linoleic Acid, % Change", "setting": "[1]; [3]", "value": "−9.88", "unit": "%"}, {"measurement": "Tiete Tebrana Ratio, +10 days", "setting": "[1]; blood test after 10 mg orally per day for 10 days, baseline 0.031", "value": 0.031}, {"measurement": "Priatanic Acid, +10 days", "setting": "[1]; blood test after 10 mg orally per day for 10 days, baseline 0.09", "value": 0.1}, {"measurement": "Hexacosanoic Acid C24:0, +10 days", "setting": "[1]; blood test after 10 mg orally per day for 10 days, baseline 0.3", "value": 0.4}, {"measurement": "Hexacosanoic Acid C28:1, +10 days", "setting": "[1]; blood test after 10 mg orally per day for 10 days, baseline 0.48", "value": 0.62}, {"measurement": "Total w3, +10 days", "setting": "[1]; blood test after 10 mg orally per day for 10 days, baseline 0.5", "value": 0.6}, {"measurement": "Phytanic Acid, +10 days", "setting": "[1]; blood test after 10 mg orally per day for 10 days, baseline 1.33", "value": 1.58}, {"measurement": "Total Monounsaturated, +10 days", "setting": "[1]; blood test after 10 mg orally per day for 10 days, baseline 2.5", "value": 2.8}, {"measurement": "Docosanoic Acid C22:1, +10 days", "setting": "[1]; blood test after 10 mg orally per day for 10 days, baseline 3", "value": 3}, {"measurement": "Total Saturated, +10 days", "setting": "[1]; blood test after 10 mg orally per day for 10 days, baseline 3.5", "value": 3.5}, {"measurement": "Total w61, +10 days", "setting": "[1]; blood test after 10 mg orally per day for 10 days, baseline 4.1", "value": 4.2}, {"measurement": "Total Polyunsaturated, +10 days", "setting": "[1]; blood test after 10 mg orally per day for 10 days, baseline 4.6", "value": 4.8}, {"measurement": "Total Fatty Acids, +10 days", "setting": "[1]; blood test after 10 mg orally per day for 10 days, baseline 10.7", "value": 10.9}, {"measurement": "DPA C22:6W6, +10 days", "setting": "[1]; blood test after 10 mg orally per day for 10 days, baseline 23", "value": 21}, {"measurement": "Mead Acid, +10 days", "setting": "[1]; blood test after 10 mg orally per day for 10 days, baseline 25", "value": 25}, {"measurement": "DTA C22 4W6T, +10 days", "setting": "[1]; blood test after 10 mg orally per day for 10 days, baseline 31", "value": 33}, {"measurement": "Tetracosanoic Acid, +10 days", "setting": "[1]; blood test after 10 mg orally per day for 10 days, baseline 44.3", "value": 55.2}, {"measurement": "Arachidic Acid, +10 days", "setting": "[1]; blood test after 10 mg orally per day for 10 days, baseline 56", "value": 51}, {"measurement": "Docosanoic Acid C22:0, +10 days", "setting": "[1]; blood test after 10 mg orally per day for 10 days, baseline 60.2", "value": 73.8}, {"measurement": "EPA, +10 days", "setting": "[1]; blood test after 10 mg orally per day for 10 days, baseline 70", "value": 83}, {"measurement": "DPA C22 6W3, +10 days", "setting": "[1]; blood test after 10 mg orally per day for 10 days, baseline 77", "value": 73}, {"measurement": "Nervonic Acid, +10 days", "setting": "[1]; blood test after 10 mg orally per day for 10 days, baseline 81", "value": 79}, {"measurement": "h-g-Linoleic Acid, +10 days", "setting": "[1]; blood test after 10 mg orally per day for 10 days, baseline 243", "value": 219}, {"measurement": "DHA C22:6W3, +10 days", "setting": "[1]; blood test after 10 mg orally per day for 10 days, baseline 248", "value": 338}, {"measurement": "Arachidonic Acid, +10 days", "setting": "[1]; blood test after 10 mg orally per day for 10 days, baseline 847", "value": 819}, {"measurement": "effect on glutathione S-transferase activity (in words)", "setting": "[2]; HT29 cells cultures exposed to BITC", "value": "statistically significant increase"}, {"measurement": "glutathione S-transferase activity", "setting": "[2]; 5 μmol/L of BITC", "value": "~0.51 μmol min^−1 mg proteins^−1"}, {"measurement": "glutathione S-transferase activity", "setting": "[2]; 25 μmol/L of BITC", "value": "~0.74", "unit": "μmol min^−1 mg protein^−1"}]}]}
